Consider two compounds from PMC9031804, “The Peptide-Drug Conjugate TH1902: A New Sortilin Receptor-Mediated Cancer Therapeutic against Ovarian and Endometrial Cancers” (Cancers, 2022).

Data set [1] relates to A2780 ovarian cancer xenografts. Nature of the data set: A2780 ovarian cancer xenograft tumor growth. The class given is in vivo, human tumor in female athymic nude mice. The note with it: for Tumor progression, Size Increase (x-Fold Day-0): vehicle group endpoint, n = 5 mice/group. The text has this:
Animals were obtained from Charles River Laboratories, Inc. and allowed to acclimate for 5 days before experiments. Female CD-1 nude mice (Crl:CD1-Foxn1^nu, 4–6 weeks old; ES-2) or athymic nude mice (Crl:NU(NCr)-Foxn1^nu, 4–6 weeks old; SKOV3, A2780, AN3-CA) were used for the xenograft tumor models. Mice were maintained in a pathogen-free environment and handled in accordance with the Guidelines of the Canadian Council on Animal Care. Animal protocols were approved by the Institutional Animal Care and Use Committee of Université du Québec à Montréal (0620-C1R1-897-0621).
Tumor xenografts were established by subcutaneous inoculation of 5 × 10^6 cells (ES-2) or 7 × 10^6 cells (SKOV3) in 150 µL of HBSS; other xenografts were established by subcutaneous inoculation of 5 × 10^6 cells (A2780) or 2 × 10^6 cells (AN3-CA) in 150 µL of HBSS/Matrigel (50:50). All cells were injected into the right flanks of immunodeficient mice under light isoflurane anesthesia. The injection schedules and doses of injected substances are detailed in the figures. Briefly, when palpable ES-2, SKOV3 or AN3-CA tumors reached a volume of ~100 mm^3, mice were treated weekly with either vehicle, docetaxel (3.75 or 15 mg/kg) or TH1902 (8.75 or 35 mg/kg) at equivalent docetaxel amounts via intravenous (IV) tail vein injection. Note that three cycles of 15 mg/kg docetaxel is the maximum tolerated dose in mice and that 35 mg/kg TH1902 contains the same quantity of docetaxel (bis-linked to the peptide). In A2780 xenografts, when palpable tumors reached a volume of ~250 mm^3, mice were treated with either vehicle, paclitaxel (10 mg/kg, IV), carboplatin (40 mg/kg, intraperitoneal (IP)), docetaxel (10 mg/kg, IV) or TH1902 (23 mg/kg, IV) bi-weekly as single agents or once on Day-0 as combinations with carboplatin. For combination treatments, both taxanes and TH1902 were injected 1 h following carboplatin administrations at the doses previously described. Injectable solutions were prepared as follows: TH1902 was solubilized at 10 mg/mL in 10% Tween-80 in D5W (pH 4.3, w/v) then further diluted with D5W; docetaxel was solubilized at 25 mg/mL in ethanol and Tween-80 (50/50, v/v) then further diluted with D5W; paclitaxel was solubilized at 25 mg/mL in ethanol and Cremophor EL (50/50, v/v) then further diluted in saline; carboplatin was solubilized at 50 mg/mL in water then further diluted in a solution of 30% PEG400 and 5% Tween-80 in D5W (w/v); vehicle composition and preparation mimicked highest dose of TH1902 preparation. Tumor growth was monitored by two-dimensional measurements taken with an electronic caliper and tumor volume was calculated according to the following formula: tumor volume (mm^3) = π/6 × length × width^2. Data are expressed as mean ± SEM and were analyzed using GraphPad Prism software.
Figure 8 Effects of TH1902 and carboplatin combinations on A2780 ovarian cancer xenografts. A2780 cells were subcutaneously implanted in the flanks of athymic nude mice. Tumor volume measurements following bi-weekly administrations of (A) vehicle, docetaxel, TH1902, paclitaxel or carboplatin as single agents, or (B) administered once in combination using the same dosage as described in the methods section. Colored dots below indicate drug treatments for all groups. Data are represented as mean ± SEM (n = 5 mice/group).

For data set [2] the following is noted: ref [38]; cited from earlier work. From the text:
Taxanes, mainly paclitaxel and docetaxel, are well-known microtubule stabilizers used in various cancer including ovarian and endometrial cancer first-line therapies in the last thirty years. […] Here, the new chemical entity TH1902 is distinct from the docetaxel molecule as it selectively exploits SORT1’s internalization properties to trigger cell apoptosis in ES-2 and ...

The mark [3] stands for this setting: single agent 10 mg/kg IV bi-weekly.
The mark [4] stands for this setting: single agent 40 mg/kg IP bi-weekly.

For `CC(=O)O[C@H]1C(=O)[C@@]2(C)[C@H]([C@H](OC(=O)c3ccccc3)[C@]3(O)C[C@H](OC(=O)[C@H](O)[C@@H](NC(=O)c4ccccc4)c4ccccc4)C(C)=C1C3(C)C)[C@]1(OC(C)=O)CO[C@@H]1C[C@@H]2O` [Paclitaxel, paclitaxel], in data set [1] (setting [3]), the Tumor growth inhibition amounted to 36% and the “Tumor progression, Size Increase (x-Fold Day-0)” value was found to be 4.21 x-Fold Day-0. For the same compound, in data set [2], the Water solubility result was “very poor water solubility”.
Consider `N.N.O=C([O-])C1(C(=O)[O-])CCC1.[Pt+2]` [Carboplatin, carboplatin], for which, in data set [1] (setting [4]), the Tumor growth inhibition is 38% and the “Tumor progression, Size Increase (x-Fold Day-0)” value was determined as 4.21 x-Fold Day-0.
